Paper PMC6162288, “On-chip spatiotemporal electrophysiological analysis of human stem cell derived cardiomyocytes enables quantitative assessment of proarrhythmia in drug development” (Scientific Reports, 2018)
Where “and” joins values, the source holds several entries; their conditions need not be identical. Equal values may be shown once. Read-outs that look alike come from different tables or passages of the source.

Assays:
[1] = system: lined-up hESC-CMs; assay: MEA field potential recording of lined-up hESC-CMs (cFPD, CT, their STVs, ISI, beat rate, arrest); assay type: cell-based, human; settings: for BR (beat rate) / Cond. Time (CT) / ISI (inter-spike interval) / STVCT / STVcFPD / cFPD: change vs Ctrl.; for CT: at equivalent concentrations of Nav1.5 IC50
Experimental: Human embryonic stem cell-derived cardiomyocytes clusters (hES-CMCs) were shipped from Cellectis (hES-CMCTM002, hES cell line SA002, Gothenburg, Sweden)[42],[43], and maintained in Dulbecco’s modified Eagle’s medium (DMEM) supplemented 20% heat-inactivated fetal bovaine serum, 1 mM GlutaMax, 100 U/mL penicillin, 0.1 mg/mL streptomycin, 1% nonessential amino acids and 0.1 mM β-mercaptoethanol (Invitrogen, Carsbad, CA, USA). Dispersed cardiomyocytes were isolated from hES-CMCs by a modification of the methods of Norström et al.[44]–[48]. […] The supernatant was gently aspirated with pipette, and a 5-hold volume of DMEM was added as stop solution. Remaining clusters were treats ed with the above process with several times. The supernatants were collected and centrifuged with 200 × g for 2–3 min at 4 °C. The resulting supernatant including dispersed cells was seeded into agarose microchambers on an MEA chip (MED-P530A; AlphaMED scientific. Co. Ltd., Japan)[40].
The MEA chip surface was prepared as follows. First, the chip surface was coated with collagen type I-C (Nitta Gelatin, Japan). After drying, the chip surface was coated with a 0.1% agarose gel. […] At >30 min before the start of experiment, the medium was changed to 2 mL pre-warmed fresh maintenance medium per chip.
Extracellular potential recordings of the lined-up hESC-CMs were performed using the MEA system at a sampling rate of 10 kHz with a low path filter of 2 kHz and high path filter of 1 Hz, and signals were amplified by 100–50,000 using the amplifier. The MEA chip with lined-up hESC-CMs was set in the FP measurement device and placed in a humidified cell culture incubator at 37 °C, 5% CO2. The signals were analyzed by Igor Pro 6.0 (WaveMetrics, Inc., USA) and FlexPro 7.0 (Weisang GmbH, Germany).
We adopted the same drug administration protocol as we examined previously[40] (Fig. 2B). Briefly, the MEA chips of lined-up cells for experiments were selected from the chips having 0.6–1.1 Hz beating frequency and ventricle-like waveforms of FP recordings (see Fig. 1B,D). The MEA chip was placed in the holder of the FP measurement device, and equilibrated for 5 min, and then the control FP waveforms were recorded for 10 min. Subsequently, the drug was applied to the medium at 1% dilution in serially increasing additions, and the FP waveforms were recorded for 10 min at each concentration. Finally, the drug-containing medium was replaced with fresh medium after washing three times. The last 50 beats extracted from 10 min recorded FP waveform data was used for beat rate, FPD (the time from first depolarization peak to broad repolarization peak) and CT (the time difference of the first peaks between separately placed electrodes in lined-upped cell-network) measurement at each concentration (Fig. 2C).
It was normalized (cFPD) to the beating rate of cardiomyocytes using Bazett’s correction formula based on the comparison of the slope of a plot of inter-spike interval and FPD, or corrected FPD by Bazett’s or Fridericia’s formulae (Fig. 3). The short-term variability (STV) of cFPD and CT, which was defined as the mean distance of points perpendicular to the line of identity in the Poincaré plot, was calculated ( STV=∑|D(n+1)−Dn|/(n×2) , where Dn represents the FPD and CT of n-th beating). STVs were last 50 beat data from 5 min extraction of cFPD and CT. To assess the arrhythmogenicity risk of test drugs, the mean values of cFPD, STVcFPD, CT and STVCT of each drug were plotted.

[2] = system: Nav1.5; settings: cited from earlier work
[3] = system: hERG; settings: cited from earlier work
[4] = system: Cav1.2; settings: cited from earlier work
[5] = cited from earlier work
[6] = Conc. 10^3 nM (1 μM), listed as astemizole

SMILES | BR (beat rate) ([1]; Conc. 10 nM) [%] | Cond. Time (CT) ([1]; Conc. 10 nM) [%] | ISI (inter-spike interval) ([1]; Conc. 10 nM) [%] | STVCT ([1]; Conc. 10 nM) [%] | cFPD ([1]; Conc. 10 nM) [%] | Cond. Time (CT) ([1]; Conc. 10^2 nM (0.1 μM)) [%] | STVCT ([1]; Conc. 10^2 nM (0.1 μM)) [%] | STVcFPD ([1]; Conc. 10^2 nM (0.1 μM)) [%] | cFPD ([1]; Conc. 10^2 nM (0.1 μM)) [%] | BR (beat rate) ([1]; Conc. 10^2 nM) [%] | ISI (inter-spike interval) ([1]; Conc. 10^2 nM) [%] | Cond. Time (CT) ([1]; Conc. 10^3 nM (1 μM)) [%] | STVCT ([1]; Conc. 10^3 nM (1 μM)) [%] | STVcFPD ([1]; Conc. 10^3 nM (1 μM)) [%] | cFPD ([1]; Conc. 10^3 nM (1 μM)) | BR (beat rate) ([1]; Conc. 10^3 nM) [%] | ISI (inter-spike interval) ([1]; Conc. 10^3 nM) [%] | CT [1] | IC50 ([2]; read-out: IC50 Nav1.5) [µM] | IC50 ([4]; read-out: IC50 Cav1.2) [µM] | also measured
COc1ccc(CCN2CCC(Nc3nc4ccccc4n3Cc3ccc(F)cc3)CC2)cc1 [Astemizole, astemizole] | 6.5 | −3.0 | −5.9 | 13 | 0.69 | −1.4 | 483 | 14 | 4.4 | 6.1 | −5.3 | 126 | 196 | 122 | 43.7% and 44% | −2.5 | 3.1 | increased | 2.2 | 0.7 | BR (beat rate) ([1]; Conc. 1 nM): 6.0%; Cond. Time (CT) ([1]; Conc. 1 nM): −0.99%; ISI (inter-spike interval) ([1]; Conc. 1 nM): −5.4%; STVCT ([1]; Conc. 1 nM): 46%; STVcFPD ([1]; Conc. 1 nM): −14%; cFPD ([1]; Conc. 1 nM): 0.24%; STVcFPD ([1]; Conc. 10 nM): 3.5%; STVCT ([1]; Conc. 10^2 nM (0.1 μM), listed as astemizole): 483%; STVCT [1, 6]: 196%; STVcFPD [1, 6]: 122%; BR (beat rate) ([1]; Conc. 10^−1 nM): 2.0%; ISI (inter-spike interval) ([1]; Conc. 10^−1 nM): −1.9%; STVCT ([1]; Conc. 10^−1 nM): 46%; STVcFPD ([1]; Conc. 10^−1 nM): −2.8%; cFPD ([1]; Conc. 10^−1 nM): −0.71%; Cond. Time (CT) ([1]; Conc. 10^−1 nM, 150 μm inter-electrode distance): −3.3%; FPD (repolarization index) ([1]; at 10 times higher than therapeutic plasma concentrations): […]; IC50 [3]: […]; EPTC ([5]; effective therapeutic plasma concentration): 5.5 to 7.9 nM; Unbound ([5]; unbound therapeutic plasma concentration): 0.2 to 0.26 nM
O=C(NCC1CCCCN1)c1cc(OCC(F)(F)F)ccc1OCC(F)(F)F (stereo not shown) [Flecainide, flecainide] | 2.6 | −3.2 | −2.5 | 7.0 | 0.13 | 12 | 61 | −16 | 3.4 | 3.9 | −3.7 | −0.65 | 36 | 0.32 | 1.8% | 4.5 | −4.2 | increased | 34 | 55.9 | STVcFPD increase ([1]; 10–100 μM): about 50%; Cond. Time (CT) ([1]; Conc. 10^4 nM (10 μM)): 64% and 65%; STVCT ([1]; Conc. 10^4 nM (10 μM)): 288%; STVcFPD ([1]; Conc. 10^4 nM (10 μM)): 41%; cFPD ([1]; Conc. 10^4 nM (10 μM)): 0.11%; STVCT ([1]; Conc. 10^4 nM (10 μM), listed as flecainide): 287%; BR (beat rate) ([1]; Conc. 10^4 nM): 5.1%; ISI (inter-spike interval) ([1]; Conc. 10^4 nM): −4.7%; Cond. Time (CT) ([1]; Conc. 10^5 nM (100 μM)): −3.6%; STVCT ([1]; Conc. 10^5 nM (100 μM)): 263%; STVcFPD ([1]; Conc. 10^5 nM (100 μM)): 54%; cFPD ([1]; Conc. 10^5 nM (100 μM)): −14%; Arrest ([1]; Conc. 10^5 nM, arrest cases/chips): 1/4; BR (beat rate) ([1]; Conc. 10^5 nM): 5.8%; ISI (inter-spike interval) ([1]; Conc. 10^5 nM): −5.1%; FPD ([1]; up to 100 μM): did not show FPD prolongation; IC50 ([2]; ref Table 1, read-out: Nav1.5 IC50): ~34 µM; IC50 ([3]; read-out: IC50 hERG): 1.8 µM; IC50 ([4]; read-out: Cav1.2 IC50, ref Table 1): 56 µM
